# Measurements from patent publication US7255984B2, “Combination therapy for osteoporosis” (Pfizer Inc., priority 1996, dated 2007).
# How the values were obtained:
# [1] = tested on: ovariectomized (OVX) rats, lumbar spine; experiment: Lumbar vertebral bone mineral measurements (DXA) in OVX rats, combination and sequential treatment; type: in vivo, female Sprague-Dawley rats
# Method: One hundred and four female Sprague-Dawley rats (Charles River, Wilmington, Mass.) at 12 months of age were sham-operated or ovariectomized (OVX) at month 0. Three months post-surgery, OVX rats were treated with either Prostaglandin E2 (PGE2), a known anabolic bone agent, at 3 mg/kg/day (subcutaneously injection), or PGE2 at 3 mg/kg/day (subcutaneously injection) combined with droloxifene (DRO) at 10 mg/kg/day (orally) for 2 months. Thereafter, the PGE2 treatment was withdrawn and the rats were then treated with either vehicle (10% alcohol in saline) or DRO (10 mg/kg/day, orally) for another one and a half months as described in the following.
# Group VIII: Eight OVX rats were subcutaneously injected with 3 mg/kg/day of PGE2 from months 3 to 5, and autopsied at month 5.
# Group IX: Eight OVX rats were subcutaneously injected with 3 mg/kg/day of PGE2 from months 3 to 5, and vehicle from 5 to 6.5 months, and then autopsied at month 6.5.
# Group X: Eight OVX rats were subcutaneously injected with 3 mg/kg/day of PGE2 from months 3 to 5, and 10 mg/kg/day of DRO orally from 5 to 6.5 months, and then autopsied at month 6.5.
# Group XI: Eight OVX rats were subcutaneously injected with 3 mg/kg/day of PGE2 and 10 mg/kg/day of DRO orally from months 3 to 5, and then autopsied at month 5.
# Group XII: Eight OVX rats were subcutaneously injected with 3 mg/kg/day of PGE2 and 10 mg/kg/day of DRO orally from months 3 to 5, and vehicle from months 5 to 6.5, then autopsied at month 6.5.
# Group XIII: Eight OVX rats were subcutaneously injected with 3 mg/kg/day of PGE2 and 10 mg/kg/day of DRO orally from months 3 to 5, and DRO alone from months 5 to 6.5, then autopsied at month 6.5.
# Both PGE2 (Cayman Chemical Co., Ann Arbor, Mich.) or droloxifene (Pfizer Inc. Groton, Conn.) powder was first dissolved in 100% ethanol and further diluted with saline into desired concentrations (final ethanol concentration was 10%). A PGE2 solution was daily injected subcutaneously on the back at 1 ml/kg. A droloxifene solution was given daily p.o. at 1 ml/rat.
# Dual energy x-ray absorptiometry (QDR 1000/W, Hologic, Inc., Waltham, Mass.) equipped with a “Regional High Resolution Scan” software (Hologic, Inc., Waltham, Mass.) was used to determined the bone area, bone mineral content (BMC), and bone mineral density (BMD) of whole lumbar spine and each of the six lumbar vertebrae (LV1-6) in the anesthetized rats. The rats were anesthetized by injection (i.p.) of 1 ml/kg of a mixture of ketamine/rompun (ratio of 4 to 3), and then placed on the rat platform. The scan field sized was 6×1.9 cm, resolution was 0.0254×0.0127 cm, and scan speed was 7.25 mm/sec. The whole lumbar spine scan image was obtained and analyzed. Bone area (BA), and bone mineral content (BMC) were determined, and bone mineral density was calculated (MBC divided by BA) for the whole lumbar spine and each of the six lumbar vertebrae (LV1-6).
# Ovariectomized Rats = conditions: cited from earlier work
# [2] = tested on: Osteogenic Female Rat Skeleton; conditions: risedronate administered after discontinuing PGE2; cited from earlier work
# [3] = OVX rats, PGE2 3 mg/kg/day months 3 to 5, then vehicle months 5 to 6.5
smiles,measurement,setting,value
"CC/C(=C(/c1ccc(OCCN(C)C)cc1)c1cccc(O)c1)c1ccccc1 [DRO, phenol, 3-[1-[4[2-(dimethylamino)ethoxy]phenyl]-2-phenyl-1-butenyl]-, (E)-]",Effect of DRO on the anabolic effects of PGE2,"[1]; OVX rats, DRO 10 mg/kg/day orally combined with PGE2 3 mg/kg/day s.c. for 2 months",did not blunt
same,Maintenance of PGE2-restored bone after discontinuation of PGE2,"[1]; OVX rats, PGE2 months 3 to 5, then DRO 10 mg/kg/day orally months 5 to 6.5",completely maintained
same,Bone loss in the lumbar spine when PGE2 was withdrawn and DRO continued for another 1.5 months,"[1]; OVX rats, PGE2 plus DRO months 3 to 5, then DRO alone 10 mg/kg/day months 5 to 6.5",no bone loss
"CCCCC[C@H](O)/C=C/[C@H]1[C@H](O)CC(=O)[C@@H]1C/C=C\CCCC(=O)O [PGE2, Prostaglandin E2]",BMC of LV2 upon PGE2 cessation of treatment,[1]; [3],significant decrease
same,"BMD of LV1, LV2, and LV3 upon PGE2 cessation of treatment",[1]; [3],significant decrease
same,BMC and BMD of whole lumbar spine and lumbar vertebrae versus sham control levels,"[1]; rats 3 months post-OVX, treated for 2 months (months 3 to 5), PGE2 3 mg/kg/day s.c., DRO 10 mg/kg/day orally",completely restored
"O=C(c1ccc(OCCN2CCCCC2)cc1)c1c(-c2ccc(O)cc2)sc2cc(O)ccc12 [raloxifene, 6hydroxy-2-(4-hydroxyphenyl)-3-[4-(2-piperidinoethoxy)benzoyl]benzo[b]thiophene]",Action on bone and lipids,Ovariectomized Rats; compared with estrogen,mimics the favorable action of estrogen
same,Uterine stimulatory effect,Ovariectomized Rats; unlike estrogen,minimal
O=P(O)(O)C(O)(Cc1cccnc1)P(=O)(O)O [risedronate],Time for which most of the new cancellous and cortical bone induced by PGE2 is maintained after discontinuing PGE2,[2],at least 60 days
